Data reported in ChEMBL document CHEMBL1122067, “Species- or isozyme-specific enzyme inhibitors. 4. Design of a two-site inhibitor of adenylate kinase with isozyme selectivity” (J Med Chem, 1982).

Key:
[1] = test system: CCCCNc1ncnc2c1ncn2C1O[C@H](COP(=O)(O)OP(=O)(O)OP(=O)(O)O)[C@@H](O)[C@H]1O; assay: (§1) Concentration for half-maximal velocity for adenylate kinase (AK II) was determined
[2] = test system: Nc1ncnc2c1ncn2[C@@H]1O[C@H](COP(=O)(O)O)[C@@H](O)[C@H]1O; assay: as §1
[3] = test system: O=C(CI)NCCCCCNc1ncnc2c1ncn2C1O[C@H](COP(=O)(O)OP(=O)(O)OP(=O)(O)O)[C@@H](O)[C@H]1O; assay: as §1
[4] = test system: CCCCNc1ncnc2c1ncn2C1O[C@H](COP(=O)(O)OP(=O)(O)OP(=O)(O)O)[C@@H](O)[C@H]1O; assay: (§2) Inhibitory constant of rat adenylate kinase (AK II) isozymes expressed as relative maximal velocity
[5] = test system: Nc1ncnc2c1ncn2[C@@H]1O[C@H](COP(=O)(O)O)[C@@H](O)[C@H]1O; assay: as §2
[6] = test system: CCSc1nc2c(N)ncnc2n1[C@@H]1O[C@H](COP(=O)(O)O)[C@@H](O)[C@H]1O; assay: as §2
[7] = test system: CC(=O)NCCNc1ncnc2c1ncn2C1O[C@H](COP(=O)(O)O)[C@@H](O)[C@H]1O; assay: as §2
[8] = test system: CC(=O)NCCCCCCCCNc1ncnc2c1ncn2C1O[C@H](COP(=O)(O)O)[C@@H](O)[C@H]1O; assay: as §2
[9] = test system: O=C(CI)NCCCCCNc1ncnc2c1ncn2C1O[C@H](COP(=O)(O)OP(=O)(O)OP(=O)(O)O)[C@@H](O)[C@H]1O; assay: as §2
[10] = Inhibitory constant of rat adenylate kinase (AK) isozymes expressed as relative maximal velocity
[11] = Inhibitory constant of rat adenylate kinase(AK) isozymes and maximal velocity was determined
[12] = Concentration for half-maximal velocity for adenylate kinase (AK) was determined

Compound	Vmax [10]	Km [12]	also measured
Adenylate kinase 2, mitochondrial (Rattus norvegicus) (from UniProt P29410)	–	–	Km [1]: 1400 µM; Km [2]: 90 µM; Km [3]: 1000 µM; Vmax [4]: 13%; Vmax [5]: 100%; Vmax [6]: 0%; Vmax [7]: 0%; Vmax [8]: 0%; Vmax [9]: 21%
CCCSc1nc2c(N)ncnc2n1[C@@H]1O[C@H](COP(=O)(O)OP(=O)(O)OP(=O)(O)O)[C@@H](O)[C@H]1O	0%	–	–
CC(=O)NCCNc1ncnc2c1ncn2C1O[C@H](COP(=O)(O)O)[C@@H](O)[C@H]1O (stereo partly specified)	–	–	Vmax [11]: 0%
CCCCSc1ncnc2c1ncn2C1O[C@H](COP(=O)(O)OP(=O)(O)OP(=O)(O)O)[C@@H](O)[C@H]1O (stereo partly specified)	192%	4000 µM	–
Nc1ncnc2c1nc(Sc1ccccc1)n2[C@@H]1O[C@H](COP(=O)(O)OP(=O)(O)OP(=O)(O)O)[C@@H](O)[C@H]1O	0%	–	–
CC(=O)NCCCCCCCCNc1ncnc2c1ncn2C1O[C@H](COP(=O)(O)O)[C@@H](O)[C@H]1O (stereo partly specified)	0%	–	–
CCCCN(CCCC)c1ncnc2c1ncn2C1O[C@H](COP(=O)(O)OP(=O)(O)OP(=O)(O)O)[C@@H](O)[C@H]1O (stereo partly specified)	0%	–	–
O=C(CI)NCCCCCNc1ncnc2c1ncn2C1O[C@H](COP(=O)(O)OP(=O)(O)OP(=O)(O)O)[C@@H](O)[C@H]1O (stereo partly specified)	0%	–	–
Nc1ncnc2c1ncn2[C@@H]1O[C@H](COP(=O)(O)OP(=O)(O)OP(=O)(O)O)[C@@H](O)[C@H]1O	100%	570 µM	–
CCCCNc1ncnc2c1ncn2C1O[C@H](COP(=O)(O)OP(=O)(O)OP(=O)(O)O)[C@@H](O)[C@H]1O (stereo partly specified)	86%	2800 µM	–
